Activity calls are given as the source filed them.
Experiments:
[1] = tested on: BJ; experiment: BJ-TERT fibroblast viability loss – cell-based, RAS-independent, luminescence, dose response (AID 1933); format: functional; conditions: Homo sapiens
[2] = tested on: BJ; experiment: cells; format: functional, cell-based; conditions: Homo sapiens
[3] = tested on: BJ; experiment: BJ-TERT-LT-ST fibroblast viability loss – cell-based, RAS-independent, luminescence, dose response (AID 1935); format: functional; conditions: Homo sapiens;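 note: BJ fibroblasts immortalized with TERT plus LT and ST oncogenes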
[4] = DRD fibroblast viability loss – cell-based, non-viral oncogenic, luminescence, dose response (AID 1934); format: functional; conditions: Homo sapiens
[5] = biological target: T1, Replicative DNA helicase DnaB (Mycobacterium tuberculosis, UniProt P9WMR3); experiment: DnaB intein splicing inhibitors, dose response, biochemical, cell-free fluorescence (AID 449749); format: functional
T1 sequence (P9WMR3 whole entry): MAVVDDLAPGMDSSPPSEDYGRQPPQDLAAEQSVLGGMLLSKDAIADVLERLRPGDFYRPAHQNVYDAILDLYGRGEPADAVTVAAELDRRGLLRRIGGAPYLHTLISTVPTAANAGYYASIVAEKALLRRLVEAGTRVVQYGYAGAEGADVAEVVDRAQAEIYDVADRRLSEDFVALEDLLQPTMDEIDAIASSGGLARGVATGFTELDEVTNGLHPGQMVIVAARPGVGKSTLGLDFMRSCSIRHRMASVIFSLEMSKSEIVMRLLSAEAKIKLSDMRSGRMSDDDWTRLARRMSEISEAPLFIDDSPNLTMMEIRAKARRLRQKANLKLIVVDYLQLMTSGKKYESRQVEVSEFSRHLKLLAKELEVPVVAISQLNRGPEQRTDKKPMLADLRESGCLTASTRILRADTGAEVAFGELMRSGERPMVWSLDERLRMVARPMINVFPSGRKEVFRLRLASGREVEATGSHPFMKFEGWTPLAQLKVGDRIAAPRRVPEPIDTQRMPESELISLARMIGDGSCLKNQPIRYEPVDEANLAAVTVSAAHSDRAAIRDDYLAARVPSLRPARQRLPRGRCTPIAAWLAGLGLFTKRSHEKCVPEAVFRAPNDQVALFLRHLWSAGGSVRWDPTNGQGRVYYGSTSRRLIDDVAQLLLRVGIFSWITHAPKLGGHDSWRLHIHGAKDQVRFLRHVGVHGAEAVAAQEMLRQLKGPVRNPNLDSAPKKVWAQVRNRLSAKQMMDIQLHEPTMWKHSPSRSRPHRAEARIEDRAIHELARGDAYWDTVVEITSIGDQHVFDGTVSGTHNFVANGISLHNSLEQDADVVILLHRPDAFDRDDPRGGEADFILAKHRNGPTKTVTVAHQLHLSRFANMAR

[6] = biological target: T2, Protein RecA (Mycobacterium tuberculosis, UniProt P9WHJ3); experiment: Fluorescence Cell-Free Homogeneous Dose Retest to Identify Inhibitors of RecA-Intein Splicing Activity. [Related pubchem assays (depositor defined):AID2097, AID2223, AID489010, AID492950]; format: functional
T2 sequence (P9WHJ3 whole entry): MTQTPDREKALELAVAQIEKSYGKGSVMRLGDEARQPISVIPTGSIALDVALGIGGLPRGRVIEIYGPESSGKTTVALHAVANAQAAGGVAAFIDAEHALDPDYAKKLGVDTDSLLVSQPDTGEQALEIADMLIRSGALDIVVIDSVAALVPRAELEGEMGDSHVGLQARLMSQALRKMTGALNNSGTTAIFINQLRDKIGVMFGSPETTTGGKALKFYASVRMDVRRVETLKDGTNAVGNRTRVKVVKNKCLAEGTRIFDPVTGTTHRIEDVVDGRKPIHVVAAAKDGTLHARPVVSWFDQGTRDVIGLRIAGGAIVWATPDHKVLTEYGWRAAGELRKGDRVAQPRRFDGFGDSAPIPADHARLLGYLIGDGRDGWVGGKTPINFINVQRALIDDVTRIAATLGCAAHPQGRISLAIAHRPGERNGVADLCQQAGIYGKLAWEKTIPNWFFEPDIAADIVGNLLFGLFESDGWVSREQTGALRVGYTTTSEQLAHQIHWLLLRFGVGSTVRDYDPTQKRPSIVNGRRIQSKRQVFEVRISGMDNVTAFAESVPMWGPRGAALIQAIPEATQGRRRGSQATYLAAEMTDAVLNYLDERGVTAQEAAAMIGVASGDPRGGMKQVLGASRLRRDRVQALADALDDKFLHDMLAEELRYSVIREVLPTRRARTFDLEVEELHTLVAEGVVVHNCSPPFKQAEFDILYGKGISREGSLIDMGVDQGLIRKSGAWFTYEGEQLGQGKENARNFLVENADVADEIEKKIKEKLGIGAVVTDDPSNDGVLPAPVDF

[7] = A549 cell cytotoxicity, dose response, cytotoxicity control, plate reader, cherry-pick, antagonist series (AID 743412); format: functional, cell-based
[8] = toxicity toward HepG2 liver cells – cell-based, plate reader, cherry-pick, antagonist series, cytotoxicity control, dose response (AID 743416); format: functional
[9] = blockers of bursicon-stimulated LGR2 cAMP reporter – cell-based, HEK293, CRE-luciferase reporter, cherry pick, set 2, dose response (AID 743343); format: functional;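 note: transfected cells were stimulated with diluted bursicon conditioned medium after compound addition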
[10] = blockade of melanocortin 4 receptor signaling – cell-based, plate reader, cherry pick, counter-screen for LGR2 antagonist project, dose response (AID 743444); format: functional;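 note: transfected HEK 293 cells stimulated with alpha-MSH peptide; potency of inhibitors of the alpha-MSH evoked signal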
[11] = viability loss in HEK293 cells – cell-based, plate reader, cherry-picked samples, cytotoxicity control, dose response (AID 743446); format: functional
[12] = biological target: T3, fMet-Leu-Phe receptor (Homo sapiens, UniProt P21462); experiment: formyl peptide receptor binders – dose response (AID 519); format: functional
T3 sequence (P21462 whole entry): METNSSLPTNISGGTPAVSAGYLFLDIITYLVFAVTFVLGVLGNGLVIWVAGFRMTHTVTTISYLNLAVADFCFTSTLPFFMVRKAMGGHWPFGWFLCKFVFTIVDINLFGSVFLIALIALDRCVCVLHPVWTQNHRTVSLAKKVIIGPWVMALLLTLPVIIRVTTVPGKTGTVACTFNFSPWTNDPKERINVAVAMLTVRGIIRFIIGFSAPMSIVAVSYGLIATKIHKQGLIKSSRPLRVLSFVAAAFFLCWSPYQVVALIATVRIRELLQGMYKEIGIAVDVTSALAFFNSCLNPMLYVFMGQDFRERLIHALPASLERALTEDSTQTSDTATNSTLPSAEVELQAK

[13] = biological target: Paired box protein Pax-8 (Homo sapiens, UniProt Q06710); experiment: PAX8 transcriptional activity inhibition in RMG-I – RMG-I cells, luciferase, cherry-pick, dose response (AID 687027); format: functional, cell-based;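 note: luciferase reporter driven by Pax8 target thyroperoxidase promoter measured by SteadyGlo luminescence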
Chain of Paired box protein Pax-8 (Q06710 whole entry): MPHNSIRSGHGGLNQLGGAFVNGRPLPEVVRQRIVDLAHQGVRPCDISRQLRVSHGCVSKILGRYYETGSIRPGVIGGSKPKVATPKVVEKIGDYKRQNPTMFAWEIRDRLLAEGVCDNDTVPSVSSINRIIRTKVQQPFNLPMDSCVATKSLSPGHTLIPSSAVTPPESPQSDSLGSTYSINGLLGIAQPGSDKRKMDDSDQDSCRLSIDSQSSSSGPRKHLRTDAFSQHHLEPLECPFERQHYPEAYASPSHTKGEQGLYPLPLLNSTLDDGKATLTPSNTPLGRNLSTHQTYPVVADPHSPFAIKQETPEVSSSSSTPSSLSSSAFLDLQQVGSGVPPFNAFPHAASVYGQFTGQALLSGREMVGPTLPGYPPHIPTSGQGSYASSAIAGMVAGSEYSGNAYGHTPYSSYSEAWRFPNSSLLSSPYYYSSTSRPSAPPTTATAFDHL

[14] = general cell-killing toxicity readout – plate reader, dry powder samples, cytotoxicity control for PAX8 inhibitor project, dose response (AID 743021); format: functional, cell-based
[15] = biological target: T4, Cytochrome P450 1A2 (Homo sapiens, UniProt P05177);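 note: PubChem cytochrome P450 panel assay, CYP1A2 panel member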
T4 sequence (P05177 whole entry): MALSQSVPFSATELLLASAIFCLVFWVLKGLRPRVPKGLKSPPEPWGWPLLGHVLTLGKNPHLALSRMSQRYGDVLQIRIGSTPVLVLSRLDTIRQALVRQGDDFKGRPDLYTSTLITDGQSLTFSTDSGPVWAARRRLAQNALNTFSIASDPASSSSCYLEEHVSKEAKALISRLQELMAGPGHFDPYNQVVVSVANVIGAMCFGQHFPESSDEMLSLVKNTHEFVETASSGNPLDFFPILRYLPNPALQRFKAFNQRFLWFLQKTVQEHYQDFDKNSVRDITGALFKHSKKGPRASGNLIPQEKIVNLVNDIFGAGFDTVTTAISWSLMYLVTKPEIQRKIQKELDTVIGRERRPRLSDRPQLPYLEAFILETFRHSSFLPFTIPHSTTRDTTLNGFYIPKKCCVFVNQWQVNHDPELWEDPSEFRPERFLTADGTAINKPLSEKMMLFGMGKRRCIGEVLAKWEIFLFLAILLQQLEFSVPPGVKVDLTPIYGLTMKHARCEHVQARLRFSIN

[16] = biological target: T5, Histone-lysine N-methyltransferase NSD2 (Homo sapiens, UniProt O96028); format: biochemical
T5 sequence (O96028 whole entry): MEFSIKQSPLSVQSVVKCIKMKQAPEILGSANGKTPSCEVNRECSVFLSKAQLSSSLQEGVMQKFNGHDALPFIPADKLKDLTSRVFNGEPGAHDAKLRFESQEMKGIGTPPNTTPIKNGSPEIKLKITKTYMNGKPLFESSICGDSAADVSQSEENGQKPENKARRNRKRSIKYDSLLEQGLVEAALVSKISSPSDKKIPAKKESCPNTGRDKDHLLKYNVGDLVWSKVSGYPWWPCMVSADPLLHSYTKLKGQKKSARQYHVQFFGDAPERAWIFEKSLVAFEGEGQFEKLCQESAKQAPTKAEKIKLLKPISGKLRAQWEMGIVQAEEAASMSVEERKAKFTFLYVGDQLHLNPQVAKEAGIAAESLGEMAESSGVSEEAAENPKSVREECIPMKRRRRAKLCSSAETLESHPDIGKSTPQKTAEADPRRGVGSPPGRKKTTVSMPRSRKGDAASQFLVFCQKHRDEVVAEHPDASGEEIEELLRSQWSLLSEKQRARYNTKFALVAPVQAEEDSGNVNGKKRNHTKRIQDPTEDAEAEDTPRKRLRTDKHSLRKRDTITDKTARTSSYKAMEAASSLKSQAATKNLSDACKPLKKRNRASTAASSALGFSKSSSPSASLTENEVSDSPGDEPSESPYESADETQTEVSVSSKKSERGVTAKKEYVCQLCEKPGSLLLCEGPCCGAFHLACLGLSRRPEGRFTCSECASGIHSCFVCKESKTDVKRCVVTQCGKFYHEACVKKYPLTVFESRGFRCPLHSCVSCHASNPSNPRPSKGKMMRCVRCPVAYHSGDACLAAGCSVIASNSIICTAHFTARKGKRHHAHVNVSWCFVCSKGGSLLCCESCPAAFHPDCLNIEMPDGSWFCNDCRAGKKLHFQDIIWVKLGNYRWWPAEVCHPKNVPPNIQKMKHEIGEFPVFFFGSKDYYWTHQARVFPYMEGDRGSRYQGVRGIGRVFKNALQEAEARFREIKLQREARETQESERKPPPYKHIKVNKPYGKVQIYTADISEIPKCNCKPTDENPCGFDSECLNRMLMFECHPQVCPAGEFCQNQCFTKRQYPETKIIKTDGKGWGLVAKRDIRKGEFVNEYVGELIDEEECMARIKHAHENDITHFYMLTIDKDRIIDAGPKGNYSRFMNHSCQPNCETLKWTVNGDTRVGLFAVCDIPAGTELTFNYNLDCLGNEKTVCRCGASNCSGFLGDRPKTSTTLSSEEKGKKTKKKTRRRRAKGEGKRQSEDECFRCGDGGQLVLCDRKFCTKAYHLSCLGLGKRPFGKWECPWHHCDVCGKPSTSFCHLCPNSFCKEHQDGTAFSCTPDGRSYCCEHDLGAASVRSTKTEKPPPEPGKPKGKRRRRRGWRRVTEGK

[17] = biological target: T6, Tyrosyl-DNA phosphodiesterase 2 (Homo sapiens, UniProt O95551); experiment: potency against TDP2 phosphodiesterase activity – biochemical, epi absorbance, IC50, dose response (AID 743297)
T6 sequence (O95551 whole entry): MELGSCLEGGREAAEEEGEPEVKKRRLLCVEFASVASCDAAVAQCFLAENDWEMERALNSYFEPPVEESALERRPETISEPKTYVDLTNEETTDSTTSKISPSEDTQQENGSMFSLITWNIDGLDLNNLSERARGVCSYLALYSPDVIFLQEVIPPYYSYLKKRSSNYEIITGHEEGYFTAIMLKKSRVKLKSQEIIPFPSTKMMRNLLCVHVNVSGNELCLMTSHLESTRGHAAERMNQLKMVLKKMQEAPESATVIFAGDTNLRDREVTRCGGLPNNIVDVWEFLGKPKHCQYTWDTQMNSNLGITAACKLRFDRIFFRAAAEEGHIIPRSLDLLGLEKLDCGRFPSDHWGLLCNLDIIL

[18] = OVCAR-3 cell viability loss – plate reader, dry powder samples, PAX8 inhibitor project, dose response (AID 743044); format: functional, cell-based
[19] = OVCAR8 cell viability loss – plate reader, dry powder samples, PAX8 project, dose response (AID 743197); format: functional, cell-based; conditions: OVCAR-8

## O=[N+]([O-])c1ccc(Sc2nnnn2-c2ccccc2)nc1
[1]
  EC50: 6.26 µM (active)
[2]
  EC50: 63.6 µM (inconclusive)
[3]
  EC50: > 150 µM (inconclusive)
[4]
  EC50: 9.86 µM (active)
[5]
  AC50: 14.5 µM (active)
[6]
  EC50: 5.61 µM (active)
[7]
  AC50: 18.5 µM (active)
[8]
  AC50: 15.7 µM (active)
[9]
  AC50: 14.9 µM (active)
[10]
  AC50: 17.6 µM (active)
[11]
  AC50: 12.5 µM (active)

## COC(=O)Cc1n[nH]c2c1C(C1C=CCCC1)C(C#N)=C(N)O2 (configuration not stated)
[12]
  Ki: > 66.7 µM (inactive)

## C[C@@H]1CCCCO[C@H](CN(C)S(=O)(=O)c2ccc(F)cc2)[C@H](C)CN([C@@H](C)CO)C(=O)c2cc(NS(=O)(=O)c3ccc(Cl)cc3)ccc2O1
[13]
  AC50: 9.75 µM (active)
[14]
  AC50: 68.4 µM (active)

## Cc1cccc(Cn2ncc(Cl)c(Cl)c2=O)c1
[5]
  AC50: 27.5 µM (active)
[6]
  EC50: 6.04 µM (active)
[7]
  AC50: 30 µM (active)
[8]
  AC50: 37.3 µM (active)
[11]
  AC50: 17.4 µM (active)
[15]
  AC50: 22.4 µM (inconclusive)

## C[N+]1(C)[C@@H]2C[C@@H](OC(=O)[C@H](CO)c3ccccc3)C[C@H]1[C@@H]1O[C@@H]12
[12]
  Ki: > 66.7 µM (inactive)

## S=C(Nc1ccc2nsnc2c1)N1CCCCC1
[16]
  AC50: 5.13 µM (active)
[17]
  IC50: > 128 µM (inactive)

## C[C@H](CO)N1C[C@H](C)[C@H](CN(C)S(=O)(=O)c2ccc(Cl)cc2)Oc2c(NC(=O)Nc3ccc(F)cc3)cccc2C1=O
[13]
  AC50: 10.2 µM (active)
[18]
  AC50: 31.8 µM (active)
[14]
  AC50: 51.4 µM (active)
[19]
  AC50: 31.8 µM (active)

From ChEMBL document CHEMBL1201862, “PubChem BioAssay data set” (2004)
